Where a SMILES comes first, the peptide text is derived from it. Bridges are numbered along the chain shown (N, C = ends). Where no end group is shown, it is not given here.
Assays:
[1] = system: MDA-MB 231 cells; test: Lactate dehydrogenase (LDH) release cytotoxicity assay; type: cell-based; details: 24 hours, FIG. 5
[2] = system: MCF-7 cells; test: as above; type: cell-based; details: 24 hours, FIG. 4
From the text: (§1) The lactate dehydrogenase (LDH) release assay was used to measure cytotoxicity. Lactate dehydrogenase (LDH) is a stable cytoplasmic enzyme present in most cells. During damage to or rupture of cell cytoplasmic membranes, LDH is released from cells and into the surrounding cell culture supernatant. Quantitation of LDH in cell culture supernatant was used to measure cellular toxicity levels.
Both MCF-7 and control (normal) cells were detached from 75 cm^2 flasks with trypsin-EDTA and centrifuged. Cells were resuspended in cell culture media and diluted to a concentration of 50 cells/ µl 100 µl of cell suspension was transferred to each well of a 96-well plate. Three wells of cells were used for each concentration of cyclic dodecapeptide. The asay was performed in triplicates. […] The media of the experiment groups was replaced with media containing 50, 100, or 200 µg/ml of cyclic dodecapeptide. After the cells were incubated with cyclic dodecapeptide for 24 hours, the activity of released lactate dehydrogenase was detected following manufacture prototol. 5 µl of lysis solution (2% Triton-X-100) was added to each well. The plate was incubated at 37 °C for 15 minutes. 100 µ ? of freshly prepared reaction mixture containing catalyst (Diaphoresis NAD^+mixture) and dye solution (iodotetrazolium chloride (INT) and sodium lactate) was added to each well. After incubation in dark at room temperature for 30 minutes, the reaction was stopped by adding 50 µl of stopping solution (IN HCl) to each well. Plates were shaken in an orbital shaker for 10 seconds. Spectrophotometric absorbance was measured at 490 nm test wavelength and 690 nm reference wavelength. The results were determined as % cytotoxicity. The average absorbance value of the negative control group (no cyclic dodecapeptide added) was subtracted from each of the experiment groups. […] The control and experiment groups were compared relative to the positive control group, and their cytotoxicities were measured by using the formula below: % Cytotoxicity = ([Experiment−NegativeControl])/([PositiveControl−NegativeControl])∗100 [formula]

[3] = system: control (normal) cells; test: Lactate dehydrogenase (LDH) release cytotoxicity assay, control group; type: cell-based
From the text: as §1
Both MCF-7 and control (normal) cells were detached from 75 cm^2 flasks with trypsin-EDTA and centrifuged. Cells were resuspended in cell culture media and diluted to a concentration of 50 cells/ µl 100 µl of cell suspension was transferred to each well of a 96-well plate. Three wells of cells were used for each concentration of cyclic dodecapeptide. The asay was performed in triplicates. […] The media of the experiment groups was replaced with media containing 50, 100, or 200 µg/ml of cyclic dodecapeptide. After the cells were incubated with cyclic dodecapeptide for 24 hours, the activity of released lactate dehydrogenase was detected following manufacture prototol. 5 µl of lysis solution (2% Triton-X-100) was added to each well. The plate was incubated at 37 °C for 15 minutes. 100 µ ? of freshly prepared reaction mixture containing catalyst (Diaphoresis NAD^+mixture) and dye solution (iodotetrazolium chloride (INT) and sodium lactate) was added to each well. After incubation in dark at room temperature for 30 minutes, the reaction was stopped by adding 50 µl of stopping solution (IN HCl) to each well. Plates were shaken in an orbital shaker for 10 seconds. Spectrophotometric absorbance was measured at 490 nm test wavelength and 690 nm reference wavelength. The results were determined as % cytotoxicity. The average absorbance value of the negative control group (no cyclic dodecapeptide added) was subtracted from each of the experiment groups. A positive control group for maximum LDH release was used as 100% cytotoxicity. The control and experiment groups were compared relative to the positive control group, and their cytotoxicities were measured by using the formula below: % Cytotoxicity = ([Experiment−NegativeControl])/([PositiveControl−NegativeControl])∗100 [formula]

[4] = system: emryonic neurons of rats; details: cited from earlier work
[5] = system: human glioblastoma cells; details: cited from earlier work

Molecule | release of lactate dehydrogenase, % cytotoxicity, MDA-MB 231 group ([1]; 50 µg/ml) [%] | release of lactate dehydrogenase, % cytotoxicity, MDA-MB 231 group ([1]; 100 µg/ml) [%] | release of lactate dehydrogenase, % cytotoxicity, MDA-MB 231 group ([1]; 200 µg/ml) [%] | release of lactate dehydrogenase, % cytotoxicity, MCF-7 group ([2]; 50 µg/ml) [%] | release of lactate dehydrogenase, % cytotoxicity, MCF-7 group ([2]; 100 µg/ml) [%] | release of lactate dehydrogenase, % cytotoxicity, MCF-7 group ([2]; 200 µg/ml) | release of lactate dehydrogenase, % cytotoxicity, control group ([3]; 50 µg/ml, FIG. 4 (control group to MCF-7)) [%] | release of lactate dehydrogenase, % cytotoxicity, control group ([3]; 50 µg/ml, FIG. 5 (control group to MDA-MB 231)) [%] | release of lactate dehydrogenase, % cytotoxicity, control group ([3]; 100 µg/ml, FIG. 4 (control group to MCF-7)) [%] | release of lactate dehydrogenase, % cytotoxicity, control group ([3]; 100 µg/ml, FIG. 5 (control group to MDA-MB 231)) [%] | release of lactate dehydrogenase, % cytotoxicity, control group ([3]; 200 µg/ml, FIG. 4 (control group to MCF-7)) [%] | release of lactate dehydrogenase, % cytotoxicity, control group ([3]; 200 µg/ml, FIG. 5 (control group to MDA-MB 231)) [%] | cytotoxicity [4] | cytotoxicity [5]
CC[C@H](C)[C@@H]1NC(=O)[C@H](CCCNC(=N)N)NC(=O)[C@@H](NC(=O)[C@H](CC(C)C)NC(=O)[C@@H](N)CCCNC(=N)N)CSSC[C@@H](C(=O)N[C@@H](CCCNC(=N)N)C(=O)O)NC(=O)[C@H](C(C)C)NC(=O)[C@H](CCCNC(=N)N)NC(=O)[C@H]([C@@H](C)CC)NC(=O)[C@H](C(C)C)NC(=O)[C@H](C(C)C)NC1=O [cyclic dodecapeptide, RLCRIVVIRVCR] (H-RLCRIVVIRVCR-OH; disulfide 3-11) | 19.1±1.9 | 17.1±2.2 | 33.93±9 | 20.11±8.3 | 76.22±4.1 | 61.55+4% | 12.8±1.9 | 3.9±0.9 | 13.36±1.5 | 4.73±1.7 | 12.07±1.4 | 4.8±1.3 |  | 
bactenecin (RLCRIVVIRVCR; disulfide 3-11; UniProt P22226 144-155, looked up) |  |  |  |  |  |  |  |  |  |  |  |  | strongly cytotoxic | strongly cytotoxic

From patent EP3233102B1, “USE OF AN ANTIMICROBIAL PEPTIDE TO INDUCE CELL DEATH IN BREAST CANCER” (Bolkent, Sehnaz, priority 2014, dated 2024)
